Where a SMILES comes first, the peptide text is derived from it. Bridges are numbered along the chain shown (N, C = ends). Where no end group is shown, it is not given here.
T1: cathepsin G (Homo sapiens, UniProt P08311)
T1 sequence (P08311 21-244): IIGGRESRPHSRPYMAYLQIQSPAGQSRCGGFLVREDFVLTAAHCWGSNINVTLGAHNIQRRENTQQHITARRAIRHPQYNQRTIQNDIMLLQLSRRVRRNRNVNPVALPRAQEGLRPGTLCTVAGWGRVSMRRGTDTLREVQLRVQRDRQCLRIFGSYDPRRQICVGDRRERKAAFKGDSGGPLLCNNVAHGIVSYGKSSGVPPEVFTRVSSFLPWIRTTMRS

T2: synthetic 24-108MDMX (p53-binding domain of MDMX) (UniProt O15151 24-108)
T2 sequence (looked up): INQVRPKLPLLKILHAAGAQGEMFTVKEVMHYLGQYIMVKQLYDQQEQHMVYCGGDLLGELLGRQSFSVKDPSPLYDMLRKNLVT

B1: PMI(4,8)-a (peptide)
peptide: Ac-TSFKEYWCLLSP-NH2
modifications: bridge 4-8
notes: Co-crystal with MDMX is PDB 5VK1; also called PMI(4, 8)-1
B2: ^DTCp53 (DTC-stapled 16-27p53, Ser20Cys, staple Cys20-Lys24) (peptide, UniProt P04637 16-27, looked up)
peptide: QETFCDLWKLLP
modifications: bridge 5-9
notes: range 16-27; also called stapled p53 peptide

Assays:
[1] = Circular dichroism spectroscopy, percent α-helix; type: physicochemical; settings: CD spectroscopy
Source text: Circular Dichroism (CD) Spectroscopy.

cathepsin G = molecular target: T1, cathepsin G; experiment: Proteolytic stability in the presence of cathepsin G; type: in vitro ADME; settings: cathepsin G (25 μg/ml) in RPMI 1640; 100 μM peptide, 25 μg/mL cathepsin G, cell culture medium, room temperature
[2] = 25° C., PBS buffer, glutathione 10 mM, over 24 h
HCT116 p53^+/+ = experiment: Cell viability assay (CCK8), HCT116 p53+/+; type: cell-based, human; settings: concentrations of up to 50 μM
HCT116 p53^−/− = experiment: Cell viability assay (CCK8), HCT116 p53-/-; type: cell-based, human; settings: concentrations of up to 50 μM
HCT116 p53^+/+ cells = experiment: Cellular uptake by confocal microscopy; type: cell-based, human; settings: FITC-labeled peptide, 20 μM, 4 h
Experimental: Cellular uptake of ^DTCPMI. […] Cells were then incubated with 20 μM FITC-^DTCPMI Ctrl. or FITC-^DTCPMI for 4 h. Cells were washed with Dulbecco's phosphate buffered saline, fixed with 4% (wt/vol) paraformaldehyde, finally incubated by DAPI to stain the cell nucleus. Imaged using an LSM 510 Zeiss Axiovert 200M (v4.0) confocal microscope. Images were analyzed using an LSM image browser.

[3] = molecular target: T3, synthetic 25-109MDM2 (p53-binding domain of MDM2) (UniProt Q00987 25-109); experiment: FP competition: the peptide displaces TAMRA-PMI (10 nM) from MDM2 (50 nM)
T3 construct: range 25-109

[4] = molecular target: T3, synthetic 25-109MDM2 (p53-binding …); experiment: FP competition: the peptide displaces TAMRA-PMI (10 nM) from MDM2 (50 nM) [left panel]
[5] = molecular target: T3, synthetic 25-109MDM2 (p53-binding …); experiment: SPR competition in solution: MDM2 at 25 nM incubated with the peptide, free MDM2 read on a chip with immobilised 15-29p53
[6] = molecular target: T3, synthetic 25-109MDM2 (p53-binding …); experiment: as above; remark: listed apart in the source
[7] = molecular target: T2, synthetic 24-108MDMX (p53-binding …); experiment: SPR competition in solution: MDMX at 100 nM incubated with the peptide, free MDMX read on a chip with immobilised 15-29p53
[8] = molecular target: T2, synthetic 24-108MDMX (p53-binding …); experiment: FP competition: the peptide displaces TAMRA-PMI (10 nM) from MDMX (50 nM)
[9] = molecular target: T2, synthetic 24-108MDMX (p53-binding …); experiment: FP competition: the peptide displaces TAMRA-PMI (10 nM) from MDMX (50 nM) [right panel]
[10] = molecular target: T3, synthetic 25-109MDM2 (p53-binding …); experiment: FP competition: the peptide displaces TAMRA-PMI (10 nM) from MDM2 (50 nM); remark: listed apart in the source
[11] = molecular target: T2, synthetic 24-108MDMX (p53-binding …); experiment: SPR competition in solution: MDMX at 100 nM incubated with the peptide, free MDMX read on a chip with immobilised 15-29p53; remark: listed apart in the source

Molecule	α-helix (%) ([1]; Table 3)	α-helix (%) ([1]; Table 7)	other results
CC(=O)N[C@H]1CCCCNC(=S)SC[C@@H](C(=O)N[C@@H](Cc2ccc(O)cc2)C(=O)N[C@@H](Cc2c[nH]c3ccccc23)C(=O)N[C@@H](CC(N)=O)C(=O)N[C@@H](CC(C)C)C(=O)N[C@@H](CC(C)C)C(=O)N[C@@H](CO)C(=O)N2CCC[C@H]2C(N)=O)NC(=O)[C@H](C)NC(=O)[C@H](Cc2ccccc2)NC(=O)[C@H](CO)NC1=O [PMI(1,5)-a]	36%	6.50%	–
CC(=O)N[C@H]1CSC(=S)NCCCC[C@@H](C(=O)N[C@@H](Cc2ccc(O)cc2)C(=O)N[C@@H](Cc2c[nH]c3ccccc23)C(=O)N[C@@H](CC(N)=O)C(=O)N[C@@H](CC(C)C)C(=O)N[C@@H](CC(C)C)C(=O)N[C@@H](CO)C(=O)N2CCC[C@H]2C(N)=O)NC(=O)[C@H](C)NC(=O)[C@H](Cc2ccccc2)NC(=O)[C@H](CO)NC1=O [PMI(1,5)-b]	7.6%	8.38%	–
CC(=O)N[C@H](C(=O)N[C@H]1CCCCNC(=S)SC[C@@H](C(=O)N[C@@H](Cc2c[nH]c3ccccc23)C(=O)N[C@@H](CC(N)=O)C(=O)N[C@@H](CC(C)C)C(=O)N[C@@H](CC(C)C)C(=O)N[C@@H](CO)C(=O)N2CCC[C@H]2C(N)=O)NC(=O)[C@H](CCC(=O)O)NC(=O)[C@H](C)NC(=O)[C@H](Cc2ccccc2)NC1=O)[C@@H](C)O [PMI(2,6)-a]	5.9%	15.3%	–
CC(=O)N[C@H](C(=O)N[C@H]1CSC(=S)NCCCC[C@@H](C(=O)N[C@@H](Cc2c[nH]c3ccccc23)C(=O)N[C@@H](CC(N)=O)C(=O)N[C@@H](CC(C)C)C(=O)N[C@@H](CC(C)C)C(=O)N[C@@H](CO)C(=O)N2CCC[C@H]2C(N)=O)NC(=O)[C@H](CCC(=O)O)NC(=O)[C@H](C)NC(=O)[C@H](Cc2ccccc2)NC1=O)[C@@H](C)O [PMI(2,6)-b]	3.1%	4.81%	–
CC(=O)N[C@H](C(=O)N[C@@H](CO)C(=O)N[C@@H](Cc1ccccc1)C(=O)N[C@H]1CCCCNC(=S)SC[C@@H](C(=O)N[C@@H](CC(C)C)C(=O)N[C@@H](CC(C)C)C(=O)N[C@@H](CO)C(=O)N2CCC[C@H]2C(N)=O)NC(=O)[C@H](Cc2c[nH]c3ccccc23)NC(=O)[C@H](Cc2ccc(O)cc2)NC(=O)[C@H](CCC(=O)O)NC1=O)[C@@H](C)O [PMI(4,8)-a]	25%	39.3%	–
CC(=O)N[C@H](C(=O)N[C@@H](CO)C(=O)N[C@@H](Cc1ccccc1)C(=O)N[C@H]1CSC(=S)NCCCC[C@@H](C(=O)N[C@@H](CC(C)C)C(=O)N[C@@H](CC(C)C)C(=O)N[C@@H](CO)C(=O)N2CCC[C@H]2C(N)=O)NC(=O)[C@H](Cc2c[nH]c3ccccc23)NC(=O)[C@H](Cc2ccc(O)cc2)NC(=O)[C@H](CCC(=O)O)NC1=O)[C@@H](C)O [PMI(4,8)-b]	5.6%	9.15%	–
CC(=O)N[C@H](C(=O)N[C@@H](CO)C(=O)N[C@@H](Cc1ccccc1)C(=O)N[C@@H](C)C(=O)N[C@H]1CCCCNC(=S)SC[C@@H](C(=O)N[C@@H](CC(C)C)C(=O)N[C@@H](CO)C(=O)N2CCC[C@H]2C(N)=O)NC(=O)[C@H](CC(N)=O)NC(=O)[C@H](Cc2c[nH]c3ccccc23)NC(=O)[C@H](Cc2ccc(O)cc2)NC1=O)[C@@H](C)O [PMI(5,9)-a]	0%	6.88%	–
CC(=O)N[C@H](C(=O)N[C@@H](CO)C(=O)N[C@@H](Cc1ccccc1)C(=O)N[C@@H](C)C(=O)N[C@H]1CSC(=S)NCCCC[C@@H](C(=O)N[C@@H](CC(C)C)C(=O)N[C@@H](CO)C(=O)N2CCC[C@H]2C(N)=O)NC(=O)[C@H](CC(N)=O)NC(=O)[C@H](Cc2c[nH]c3ccccc23)NC(=O)[C@H](Cc2ccc(O)cc2)NC1=O)[C@@H](C)O [PMI(5,9)-b]	0%	9.58%	–
CC(=O)N[C@H](C(=O)N[C@@H](CO)C(=O)N[C@@H](Cc1ccccc1)C(=O)N[C@@H](C)C(=O)N[C@@H](CCC(=O)O)C(=O)N[C@@H](Cc1ccc(O)cc1)C(=O)N[C@@H](Cc1c[nH]c2ccccc12)C(=O)N[C@H]1CCCCNC(=S)SC[C@@H](C(N)=O)NC(=O)[C@H](CO)NC(=O)[C@H](CC(C)C)NC(=O)[C@H](CC(C)C)NC1=O)[C@@H](C)O [PMI(8,12)-a]	33%	43.3%	half-life at 100 μM (cathepsin G): ~8 h; breakdown of the DTC structure in reduced glutathione [2]: no apparent breakdown of the DTC structure was observed over 24 h
CC(=O)N[C@H](C(=O)N[C@@H](CO)C(=O)N[C@@H](Cc1ccccc1)C(=O)N[C@@H](C)C(=O)N[C@@H](CCC(=O)O)C(=O)N[C@@H](Cc1ccc(O)cc1)C(=O)N[C@@H](Cc1c[nH]c2ccccc12)C(=O)N[C@H]1CSC(=S)NCCCC[C@@H](C(N)=O)NC(=O)[C@H](CO)NC(=O)[C@H](CC(C)C)NC(=O)[C@H](CC(C)C)NC1=O)[C@@H](C)O [PMI(8,12)-b]	0%	0.23%	–
CC(=O)N[C@H](C(=O)N[C@@H](CO)C(=O)N[C@@H](Cc1ccccc1)C(=O)N[C@@H](C)C(=O)N[C@@H](CCC(=O)O)C(=O)N[C@@H](Cc1ccc(O)cc1)C(=O)N[C@@H](Cc1c[nH]c2ccccc12)C(=O)N[C@@H](CC(N)=O)C(=O)N[C@@H](CC(C)C)C(=O)N[C@@H](CC(C)C)C(=O)N[C@@H](CO)C(=O)N1CCC[C@H]1C(N)=O)[C@@H](C)O [PMI-0, reference compound] (Ac-TSFAEYWNLLSP-NH2)	0%	9.77%	–
CC(=O)N[C@H](C(=O)N[C@@H](CO)C(=O)N[C@@H](Cc1ccccc1)C(=O)N[C@@H](CCCCN)C(=O)N[C@@H](CCC(N)=O)C(=O)N[C@@H](Cc1ccc(O)cc1)C(=O)N[C@@H](Cc1c[nH]c2ccccc12)C(=O)N[C@@H](CS)C(=O)N[C@@H](CC(C)C)C(=O)N[C@@H](CC(C)C)C(=O)N[C@@H](CO)C(=O)N[C@@H](CCCNC(=N)N)C(N)=O)[C@@H](C)O [^DTCPMI Ctrl., reference compound]	–	16.6%	anti-proliferative activity against HCT116 p53+/+ (HCT116 p53^+/+): no anti-proliferative activity; anti-proliferative activity against HCT116 p53-/- (HCT116 p53^−/−): no anti-proliferative activity; intracellular localization / cellular uptake (confocal microscopy) (HCT116 p53^+/+ cells): diffused intracellular localization, demonstrating efficient cellular uptake
Ac-TSFAEYWKLLSC-NH2 (bridge 8-12) [PMI(8,12)-a]	–	–	IC50 (read off the curve) [3]: ~30 nM; IC50 (read off the curve) [4]: ~30 nM; IC50 (read off the curve) [5]: ~10 nM; IC50 (read off the curve) [6]: ~10 nM; IC50 (read off the curve) [7]: 50 to 60 nM
B1	–	–	IC50 (read off the curve) [3]: ~40 nM; IC50 (read off the curve) [8]: ~30 nM; IC50 (read off the curve) [4]: ~40 nM; IC50 (read off the curve) [9]: ~30 nM; IC50 (read off the curve) [5]: ~10 nM; IC50 (read off the curve) [6]: ~10 nM; IC50 (read off the curve) [7]: ~50 nM
B2	–	–	IC50 (read off the curve) [10]: ~300 nM; IC50 (read off the curve) [11]: ~100 nM

— patent publication US20220089638A1, “DITHIOCARBAMATE STAPLED PEPTIDES AND METHODS OF MAKING AND USE THEREOF” (UNIVERSITY OF MARYLAND, BALTIMORE, priority 2019, published 2022)
